Reference: patent US10988465B2, “CXCR4 inhibitors and uses thereof” (X4 Pharmaceuticals, Inc., priority 2016, dated 2021)

What was measured:
[1] = target: T1, Jurkat cells expressing CXCR4 (Homo sapiens, UniProt P61073); experiment: Chemokine (CXCL12-AF647) binding inhibition assay; conditions: CXCL12-AF647 25 ng/mL, read-out: IC50 CXCL-12 binding Jurkat
T1 construct: endogenous in cells; host or cells: Jurkat
Procedure: Chemokine (CXCL12-AF647) Binding Inhibition Assay
Jurkat cells expressing CXCR4 were washed once with assay buffer (Hanks' balanced salt solution with 20 mM HEPES buffer and 0.2% bovine serum albumin, pH 7.4) and then incubated for 15 min at room temperature with the test compounds diluted in assay buffer at dose-dependent concentrations. Subsequently, CXCL12-AF647 (25 ng/mL) was added to the compound-incubated cells. The cells were incubated for 30 min at room temperature. Thereafter, the cells were washed twice in assay buffer, fixed in 1% paraformaldehyde in PBS, and analyzed on the FL4 channel of a FACSCalibur flow cytometer equipped with a 635-nm red diode laser (Becton Dickinson, San Jose, Calif., USA).
The percentages of inhibition of CXCL12-AF647 binding were calculated according to the formula: [1−((MFI−MFINC)/(MFIPC−MFINC))]×100 where MFI is the mean fluorescence intensity of the cells incubated with CXCL12-AF647 in the presence of the inhibitor, MFINC is the mean fluorescence intensity measured in the negative control (i.e., autofluorescence of unlabeled cells), and MFIPC is the mean fluorescence intensity of the positive control (i.e., cells exposed to CXCL12-AF647 alone).

in vitro = conditions: human, Caco-2, pH 7.4
Procedure: Example 37: Caco-2 Permeability Assay
The goal of this assay was to evaluate the intestinal absorption potential of drug candidates using Caco-2 cell lines.
HBSS buffer with 0.3% DMSO and 5 μM LY: add 150 μL DMSO and 50 μL LY (5 mM) into 50 ml HBSS buffer (pH 7.4).
HBSS buffer with 0.1% DMSO and 5 μM LY: add 50 μL DMSO and 50 μL LY (5 mM) into 50 mL HBSS buffer (pH 7.4).
HBSS buffer with 0.3% DMSO: add 150 μL DMSO into 50 ml HBSS buffer (pH 7.4).
HBSS buffer with 0.1% DMSO: add 50 μL DMSO into 50 ml HBSS buffer (pH 7.4).
Prepare HBSS buffer with 0.4% DMSO: add 200 μL DMSO into 50 ml HBSS buffer (pH 7.4).
Prepare HBSS buffer with 0.4% DMSO and 5 μM LY: add 200 μL DMSO and 50 μL LY (5 mM) into 50 ml HBSS buffer (pH 7.4).
4. Measure TEER Take cell culture plate out of incubator, wash the cell monolayers with HBSS buffer, and then measure TEER values at Rm temperature. 5. Centrifuge Centrifuge the compound solution (from step 3) at 4000 rpm for 5 min before loading to donor chambers. 6. Dosing Add solution based on the volumes listed in the following table (make sure to take extra 100 μL of donor sample for T0 as Backup).
7. Apical LYT0 samples To determine LY concentration in the apical chember, take 100 μL sample from apical chambers into an opaque plate for LYT0. 8. Prewarm Prewarm apical and basolateral plates at 37° C. for about 5 min, then begin transport by placing the apical plate onto basolateral plate. 9. Incubation Keep the plates in incubator at 37° C. for 90 min. 10. Standard Curve preparation
11. Transport termination Separate the apical plate from the basolateral plate after 90-min incubation.
Receiver sample: 60 μL of receiver sample+60 μL ACN with IS (Osalmid or Imipramine)
Study details: Test concentration 10 μM
Test systems: Caco-2/HBSS solution
Incubation conditions: 0, 90 min at 37° C.
Sample size: Duplicates (n=2)
Bioanalytical method: LC-MS/MS
For Millicell-24 Cell Culture Plates: surface area of the membrane=0.7 cm^2, VA=0.8 mL (A-to-B) or 0.4 mL (B-to-A)
1. Papp values were calculated based on calculated concentrations.
The compound numbers correspond to the compound numbers in Table 1.

[2] = target: T2, CXCR-4 transfected U87 cell line (U87.CXCR4) (Homo sapiens, UniProt P61073); experiment: Intracellular CXCL-12-induced calcium mobilization assay (FLIPR); assay type: cell-based; conditions: U87.CXCR4 cells; CXCL-12 25-50 ng/mL; compound added 15 min before; read-out: IC50 CXCL-12 Ca^2+ flux U87.CXCR4+
T2 construct: expressed in transfected cells; host or cells: U87 (U87.CXCR4)
Procedure: Example 36: REGA Screening Assay
Intracellular CXCL-12-Induced Calcium Mobilization Assay
Intracellular calcium mobilization induced by chemokines or chemokine-derived peptides were evaluated using a calcium responsive fluorescent probe and a FLIPR system. The CXCR-4 transfected U87 cell line (U87.CXCR4) cells were seeded in gelatine-coated black-wall 96-well plates at 20,000 cells per well and incubated for 12 hours. Cells were then loaded with the fluorescent calcium probe Fluo-2 acetoxymethyl at 4 μM final concentration in assay buffer (Hanks' balanced salt solution with 20 mM HEPES buffer and 0.2% bovine serum albumin, pH 7.4) for 45 min at 37° C. The intracellular calcium mobilization induced by the CXCL-12 (25-50 ng/mL) was then measured at 37° C. by monitoring the fluorescence as a function of time in all the wells simultaneously using a fluorometric imaging plate reader (FLIPR Tetra, Molecular Devices).

T2 sequence (P61073 whole entry): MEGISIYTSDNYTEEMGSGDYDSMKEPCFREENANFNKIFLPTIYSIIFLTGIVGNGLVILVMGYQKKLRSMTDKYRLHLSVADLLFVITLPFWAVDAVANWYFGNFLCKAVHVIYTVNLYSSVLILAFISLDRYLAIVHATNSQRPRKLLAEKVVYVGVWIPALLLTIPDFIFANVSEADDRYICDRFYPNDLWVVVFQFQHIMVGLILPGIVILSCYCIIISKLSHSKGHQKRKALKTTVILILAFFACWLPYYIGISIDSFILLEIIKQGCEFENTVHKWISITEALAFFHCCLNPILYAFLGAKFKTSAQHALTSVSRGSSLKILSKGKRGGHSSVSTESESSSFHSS
T1 sequence (P61073 whole entry): as above

IC50 [1] | Papp A→B at 90 min, 10 μM (in vitro) | Papp B→A at 90 min, 10 μM (in vitro) | efflux ratio at 90 min, 10 μM (in vitro) | IC50 [2] | SMILES
0.01 to 100 nM | 0.1 to 10 ×10⁻⁶ cm/s | 10 to 30 ×10⁻⁶ cm/s | > 30 | 0.01 to 100 nM | Cc1cccnc1[C@@H]1CCC[C@H](c2nc3ccccc3n2CC2CCNCC2)N1C [I-14, 2-((2R,6S)-1-methyl-6-(3-methylpyridin-2-yl)piperidin-2-yl)-1-(piperidin-4-ylmethyl)-1H-benzo[d]imidazole]
100 to 1000 nM | 10 to 30 ×10⁻⁶ cm/s | 10 to 30 ×10⁻⁶ cm/s | 0.1 to 10 | ≥ 1000 nM | CN1CCN(c2cccc3nc([C@H]4CCC[C@@H](c5ncn6ccccc56)N4C)[nH]c23)CC1 [I-93]
100 to 1000 nM | 10 to 30 ×10⁻⁶ cm/s | 10 to 30 ×10⁻⁶ cm/s | 0.1 to 10 | ≥ 1000 nM | Cc1cccnc1[C@@H]1CCC[C@H](c2nc3cccc(N4CCN(c5ccccn5)CC4)c3[nH]2)N1 [I-162]
0.01 to 100 nM | 0.1 to 10 ×10⁻⁶ cm/s | 10 to 30 ×10⁻⁶ cm/s | 0.1 to 10 | 0.01 to 100 nM | CN1CCC(c2cccc3nc([C@H]4CCC[C@@H](c5ncccc5Cl)N4)[nH]c23)CC1 [I-152]
0.01 to 100 nM | 10 to 30 ×10⁻⁶ cm/s | 10 to 30 ×10⁻⁶ cm/s | – | 0.01 to 100 nM | [2H]C([2H])([2H])N1CCN(c2cccc3nc([C@H]4CCC[C@@H](c5ncccc5C)N4C)[nH]c23)CC1 [I-111]
0.01 to 100 nM | 0.1 to 10 ×10⁻⁶ cm/s | 10 to 30 ×10⁻⁶ cm/s | 0.1 to 10 | 0.01 to 100 nM | CN(C)C1CCN(c2cccc3nc([C@H]4CCC[C@@H](c5ncccc5Cl)N4)[nH]c23)CC1 [I-153]
0.01 to 100 nM | 0.1 to 10 ×10⁻⁶ cm/s | 0.1 to 10 ×10⁻⁶ cm/s | 0.1 to 10 | 100 to 1000 nM | CN1CCN(c2cccc3nc([C@H]4CCC[C@@H](c5ncccc5Br)N4C)[nH]c23)CC1 [I-28, 2-((2R,6S)-6-(3-bromopyridin-2-yl)-1-methylpiperidin-2-yl)-7-(4-methylpiperazin-1-yl)-1H-benzo[d]imidazole]
≥ 1000 nM | 10 to 30 ×10⁻⁶ cm/s | 10 to 30 ×10⁻⁶ cm/s | 0.1 to 10 | ≥ 1000 nM | CN1CCC(n2ccnc2[C@H]2CCC[C@@H](c3ncccc3Cl)N2)CC1 [I-172]
100 to 1000 nM | 10 to 30 ×10⁻⁶ cm/s | 10 to 30 ×10⁻⁶ cm/s | 0.1 to 10 | ≥ 1000 nM | Cc1cccnc1[C@@H]1CCC[C@H](c2nc3ccccc3n2CC2CCN(CC(F)(F)F)CC2)N1C [I-24, 2-((2R,6S)-1-methyl-6-(3-methylpyridin-2-yl)piperidin-2-yl)-1-((1-(2,2,2-trifluoroethyl)piperidin-4-yl)methyl)-1H-benzo[d]imidazole]
0.01 to 100 nM | 10 to 30 ×10⁻⁶ cm/s | 10 to 30 ×10⁻⁶ cm/s | – | 0.01 to 100 nM | [2H]C([2H])([2H])N1[C@@H](c2nc3cccc(N4CCN(C)CC4)c3[nH]2)CCC[C@H]1c1ncccc1C [I-112]
100 to 1000 nM | – | – | – | ≥ 1000 nM | Cc1cccnc1[C@@H]1CCC[C@H](c2nc3cccc(Oc4cccnc4)c3[nH]2)N1C [I-77]
100 to 1000 nM | 0.1 to 10 ×10⁻⁶ cm/s | 10 to 30 ×10⁻⁶ cm/s | 0.1 to 10 | ≥ 1000 nM | Cc1nccnc1[C@@H]1CCC[C@H](c2nc3cccc(N4CCN(C)CC4)c3[nH]2)N1C [I-105]
0.01 to 100 nM | 10 to 30 ×10⁻⁶ cm/s | 10 to 30 ×10⁻⁶ cm/s | 0.1 to 10 | 0.01 to 100 nM | Cc1cccnc1[C@@H]1CCC[C@H](c2nc3ccccc3n2C2CCN(C)CC2)N1C [I-130]
0.01 to 100 nM | 10 to 30 ×10⁻⁶ cm/s | 10 to 30 ×10⁻⁶ cm/s | 0.1 to 10 | 100 to 1000 nM | Cc1ccnc([C@@H]2CCC[C@H](c3nc4cccc(N5CCN(C)CC5)c4[nH]3)N2C)c1Cl [I-116]
≥ 1000 nM | – | – | – | ≥ 1000 nM | Cc1cccnc1[C@@H]1CCC[C@H](c2nc3cccc(Oc4ccncc4)c3[nH]2)N1C [I-78]
100 to 1000 nM | – | – | – | ≥ 1000 nM | Cc1cccnc1[C@@H]1CCC[C@H](c2nc3ccccc3n2CCc2ccccn2)N1C [I-8, 2-((2R,6S)-1-methyl-6-(3-methylpyridin-2-yl)piperidin-2-yl)-1-(2-(pyridin-2-yl)ethyl)-1H-benzo[d]imidazole]
≥ 1000 nM | – | – | – | ≥ 1000 nM | Cc1cccc(F)c1[C@@H]1CCC[C@H](c2nc3cccc(N4CCN(C)CC4)c3[nH]2)N1C [I-138]
0.01 to 100 nM | – | – | – | ≥ 1000 nM | CCN1CCN(c2cccc3nc([C@H]4CCC[C@@H](c5ncccc5C(F)(F)F)N4C)[nH]c23)CC1 (relative stereo) [I-59]
100 to 1000 nM | – | – | – | ≥ 1000 nM | Cc1cccnc1[C@@H]1CCCC(c2nccn2CCCc2ccccn2)N1 (stereo in doubt) [I-178]
0.01 to 100 nM | – | – | – | ≥ 1000 nM | COCCCn1c([C@H]2CCC[C@@H](c3ncccc3C)N2C)nc2ccccc21 [I-157]
0.01 to 100 nM | – | – | – | 0.01 to 100 nM | CN1CCN(c2cccc3nc([C@H]4CCC[C@@H](c5ncccc5Cl)N4)n(C)c23)CC1 [I-124]
– | > 10 ×10⁻⁶ cm/s | > 10 ×10⁻⁶ cm/s | – | – | COCCc1ccc(OCC(O)CNC(C)C)cc1 (centres unmarked) [Metoprolol, reference compound]
0.01 to 100 nM | – | – | – | 100 to 1000 nM | Cc1cccnc1[C@@H]1CCC[C@H](c2nc3ccccc3n2CCn2ccnc2)N1C [I-6, 1-(2-(1H-imidazol-1-yl)ethyl)-2-((2R,6S)-1-methyl-6-(3-methylpyridin-2-yl)piperidin-2-yl)-1H-benzo[d]imidazole]
0.01 to 100 nM | – | – | – | 0.01 to 100 nM | Cc1cccnc1[C@@H]1CCC[C@H](c2nc3ccccc3n2CCCCN)N1C [I-4, 4-(2-((2R,6S)-1-methyl-6-(3-methylpyridin-2-yl)piperidin-2-yl)-1H-benzo[d]imidazol-1-yl)butan-1-amine]
0.01 to 100 nM | – | – | – | 100 to 1000 nM | Cc1cccnc1[C@@H]1CCC[C@H](c2nc3ccccc3n2CCCO)N1C [I-20, 3-(2-((2R,6S)-1-methyl-6-(3-methylpyridin-2-yl)piperidin-2-yl)-1H-benzo[d]imidazol-1-yl)propan-1-ol]
100 to 1000 nM | – | – | – | ≥ 1000 nM | Cc1cccnc1[C@@H]1CCC[C@H](c2nc3ccccc3n2CCCO)N1 [I-156]

SMILES | IC50 [1] | Papp A→B at 90 min, 10 μM (in vitro) | Papp B→A at 90 min, 10 μM (in vitro) | efflux ratio at 90 min, 10 μM (in vitro) | IC50 [2]
Cc1cccnc1[C@@H]1CCC[C@H](c2nc3cccc(N4CCN(C)CC4)c3[nH]2)N1C (single isomer, unassigned) [I-3a] | 0.01 to 100 nM | 0.1 to 10 ×10⁻⁶ cm/s | 0.1 to 10 ×10⁻⁶ cm/s | – | 0.01 to 100 nM
CN1CC2CCC(C1)N2c1cccc2nc([C@H]3CCC[C@@H](c4ncccc4Cl)N3)[nH]c12 [I-121] | 0.01 to 100 nM | 10 to 30 ×10⁻⁶ cm/s | 10 to 30 ×10⁻⁶ cm/s | 0.1 to 10 | 0.01 to 100 nM
